# Patent publication US6500443B1, “Delivery of a sacrificial substrate to inhibit protease permeation into skin” (Kimberly-Clark Worldwide, Inc., priority 1999, dated 2002)
# Settings: excised skins, modified FRANZ diffusion cells, over a 36 hour period, from treated fabric
# Description: The fabrics were then tested for topical delivery of the zinc salt using excised skins in modified FRANZ diffusion cells. The amount of zinc accumulating and penetrating the skin was determined over a 36 hour period.
substance,measurement,value
zinc sulfate monohydrate,accumulation of zinc in skin,1311 μg/g dry weight of skin
same,penetration of zinc through skin,3.2 μg/cm^2/hr
